Molecular target: T1, recombinant human NPY Y2 receptors (Homo sapiens, UniProt P49146)
T1 construct: expressed in transfected cells; host or cells: CHO-C4 cells (membrane preparation)
T1 sequence (P49146 1-381): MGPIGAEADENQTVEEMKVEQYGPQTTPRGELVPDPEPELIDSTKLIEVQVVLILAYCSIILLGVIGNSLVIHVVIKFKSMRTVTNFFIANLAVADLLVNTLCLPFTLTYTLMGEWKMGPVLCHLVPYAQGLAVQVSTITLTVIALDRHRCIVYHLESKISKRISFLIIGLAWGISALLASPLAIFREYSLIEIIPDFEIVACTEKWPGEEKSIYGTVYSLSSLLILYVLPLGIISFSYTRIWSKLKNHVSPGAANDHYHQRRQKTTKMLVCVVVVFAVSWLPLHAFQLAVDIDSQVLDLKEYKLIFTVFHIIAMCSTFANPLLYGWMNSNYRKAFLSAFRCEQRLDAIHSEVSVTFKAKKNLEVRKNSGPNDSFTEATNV
Test: Scintillation proximity [35S]GTPγS binding assay (inhibition of 0.5 nM NPY-stimulated [35S]GTPγS binding)
Assay type: biochemical
Settings: 10 μM compound, CHO-C4 membranes; for inhibition at 10 µM: read-out: [%] inhibiton at 10 μM
Experimental: Preparation of Membranes: CHO—C4 cells expressing recombinant human NPY Y2 receptors were used to prepare membranes for the GTPγS assay. Cells were grown to 80-95% confluency on 15-cm (225 cm^2) tissue culture plates. After aspiration of the culture medium, cells were washed twice with 18 ml ice-cold phosphate-buffered saline (PBS), scraped off and suspended in 3 ml ice-cold PBS in pre-cooled centrifuge tubes. The dishes were rinsed with 2 ml ice-cold PBS per dish and the washings were combined with the PBS cell suspension from above. Cells pooled from 5-7 dishes were centrifuged for 5 min at 10,000 rpm (12,000 g) in a Sorvall RC5B centrifuge using an SS34 rotor at 4° C. The cell pellet was resuspended in 5 ml ice-cold buffer (20 mM HEPES, 10 mM EDTA; pH 7.4) by vortexing (2-5 sec), homogenized using a Polytron (step 4 for 20-30 sec), and ice-cold buffer added to 25 ml. The suspension was centrifuged again for 20 min at 18,000 rpm (39,000 g) at 4° C. and the pellet resuspended in 5 ml ice-cold buffer (20 mM HEPES, 0.1 mM EDTA; pH 7.4) by vortexing (2-5 sec), homogenized with a Polytron (step 4 for 10 sec), and ice-cold buffer added to 25 ml. The suspension was centrifuged a third time for 20 min at 18,000 rpm (39,000 g) at 4° C. The pellet was resuspend in 1 ml ice-cold buffer (20 mM Hepes, 0.1 mM EDTA; pH 7.4) by vortexing (5-8 sec). Two to five resuspended pellets were combined and homogenized using a Polytron (step 4 for 15-25 sec). A small aliquot (20-50 μl) was removed for protein determination by the Coomassie Plus Protein Assay Reagent (Pierce) using BSA as standard. The membrane suspension was aliquoted in pre-cooled (on dry ice) Eppendorf tubes (0.25-1 ml/tube affording approximately 0.5-2 mg of membrane protein/tube). The pellets were frozen and stored at −80° C.
Scintillation proximity [^35S]GTPγS binding assay: Frozen membranes from CHO—C4 cells expressing recombinant human NPY Y2 receptors (2 mg for four 96-well plates) were thawed on ice. Thawed membranes were pipetted into 10 ml of assay buffer (20 mM. HEPES, 10 mM MgCl2, 100 mM NaCl, pH 7.4) and homogenized briefly using a Polytron. The final assay mixture was prepared in 96-well microtiter plates (Isoplate Wallac, Perkin Elmer). The composition of the assay mixtures in a final volume of 250 μl per well was as follows: 20 mM HEPES, 10 mM MgCl2, 100 mM NaCl, pH 7.4, 30 μM GDP, 1 mg/ml BSA (added fresh), 5 μg membrane protein, 1.5 mg Wheatgerm agglutinin SPA beads (Amersham), 0.45 nM [^35S]GTPγS (Amersham, SJ1308, 1000 Ci/mmol, stabilized solution), and the test compounds (agonists and/or antagonists) at the appropriate concentrations. The samples were incubated at room temperature for 90 min by shaking, after which the SPA beads were sedimented by centrifugation in an Eppendorf 5804 centrifuge at 2700 rpm for 10 min at room temperature. After 60 min the plates were counted in a TopCount (Canberra). Basal [^35S]GTPγS binding was measured in the absence of agonist (NPY). Non-specific binding was measured in the presence of excess (10 μM) unlabelled GTPγS (Sigma). Nonspecific binding never exceeded 10% of basal binding and was thus not subtracted from the experimental data. Antagonists were tested for the inhibition of 0.5 nM NPY-stimulated [^35S]GTPγS binding. Antagonist inhibition curves were analyzed by non-linear regression using GraphPad Prism software (Version 4.0, GraphPad Software Inc., CA, USA).
Antagonistic activity of compounds of the present invention was examined by the Scintillation proximity [35S]GTPγS binding assay as described above (inhibition of 0.5 nM NPY-stimulated [^35S]GTPγS binding). The table below represents percentages of inhibition at a concentration of 10 μM.

Row | Compound | inhibition at 10 µM [%] | [%] inhibiton at 10 μM [%]
1 | COc1ccc(F)cc1CC(=O)Nc1ccc(C(=O)CN2C(=O)NC(c3ccccc3)(c3ccccc3)C2=O)cc1 [Example 50, N-{4-[2-(2,5-Dioxo-4,4-diphenyl-imidazolidin-1-yl)acetyl]-phenyl}-2-(5-fluoro-2-methoxy-phenyl)-acetamide] | 80 | –
2 | Cc1noc(C)c1CC(=O)Nc1ccc(C(=O)CN2C(=O)NC(c3ccccc3)(c3ccccc3)C2=O)cc1 [Example 27, 2-(3,6-Dimethyl-isoxazol-4-yl)-N-{4-[2-(2,5-dioxo-4,4-diphenyl-imidazolidin-1-yl)-acetyl]-phenyl}-acetamide] | – | 96
3 | COc1ccc(CC(=O)Nc2ccc(C(=O)CN3C(=O)NC(c4ccccc4)(c4ccc(C)cc4)C3=O)cc2)c(OC)c1 (racemic) [Example 41, (±)-2-2,4-Dimethoxy-phenyl)-N-{4-[2-(2,5-dioxo-4-phenyl-4-p-tolyl-imidazolidin-1-yl)-acetyl]-phenyl}-acetamide] | – | 60
4 | Cc1ccc(C2(c3ccccc3)NC(=O)N(CC(O)c3ccc(NC(=O)CC(C)C)cc3)C2=O)cc1 (racemic) [Example 14, (±)-N-{4-[2-(2,5-Dioxo-4-phenyl-4-p-tolyl-imidazolidin-1-yl)-1-hydroxy-ethyl]-phenyl}-3-methyl-butyramide] | 58 | –
5 | CCC1(c2ccccc2)NC(=O)N(Cc2ccc(NC(=O)Nc3c(C)noc3C)cc2)C1=O (racemic) [Example 19, (±)-1-(3,5-Dimethyl-isoxazol-4-yl)-3-[4-(4-ethyl-2,5-dioxo-4-phenyl-imidazolidin-1-ylmethyl)-phenyl]-urea] | 32 | –
6 | CCC(=O)Nc1ccc(C(=O)CN2C(=O)NC(c3ccc(F)cc3)(c3ccc(F)cc3)C2=O)cc1 [Example 12, N-(4-{2-[4,4-Bis-(4-fluoro-phenyl)-2,5-dioxo-imidazolidin-1-yl]-acetyl}-phenyl)-propionamide] | 42 | –
7 | Cc1noc(C)c1NC(=O)Nc1ccc(C(=O)CN2C(=O)NC(c3ccccc3)(c3ccccc3)C2=O)c(F)c1 [Example 28, 1-(3,5-Dimethyl-isoxazolyl-4-yl)-3-{4-[2-(2,5-dioxo-4,4-diphenyl-imidazolidin-1-yl)-acetyl]-3-fluoro-phenyl}-urea] | – | 98
8 | CC(C)CC(=O)Nc1ccc(C(=O)CN2C(=O)NC(c3ccccc3)(c3ccccc3)C2=O)c(F)c1 [Example 9, N-{4-[2-(2,5-Dioxo-4,4-diphenyl-imidazolidin-1-yl)-acetyl]-3-fluoro-phenyl}-3-methyl-butyramide] | 83 | –
9 | Cc1ccc(C2(c3ccccc3)NC(=O)N(CC(=O)c3ccc(NC(=O)Nc4ccccc4F)cc3)C2=O)cc1 (racemic) [Example 39, (±)-1-{4-[2-(2,5-Dioxo-4-phenyl-4-p-tolyl-imidazolidin-1-yl)-acetyl]-phenyl}-3-(2-fluoro-phenyl)-urea] | 44 | –
10 | COc1ccccc1CC(=O)Nc1ccc(C(=O)CN2C(=O)NC(c3ccccc3)(c3ccc(C)cc3)C2=O)cc1 (racemic) [Example 40, (±)-N-{4-[2-(2,5-Dioxo-4-phenyl-4-p-tolyl-imidazolidin-1-yl)-acetyl]-phenyl}-2-(2-methoxy-phenyl)-acetamide] | 70 | –

Other lines, results leading:

Row | inhibition at 10 µM [%] | [%] inhibiton at 10 μM [%] | Compound
11 | 78 | – | CCC1(c2ccccc2)NC(=O)N(CC(=O)c2ccc(NC(=O)CC(C)C)cc2F)C1=O (racemic) [Example 13, (±)-N-{4-[2-(4-Ethyl-2,5-dioxo-4-phenyl-imidazolidin-1-yl)-acetyl]-3-fluoro-phenyl}-3-methyl-butyramide]
12 | 97 | – | CCCC1(c2ccccc2)NC(=O)N(CC(=O)c2ccc(NC(=O)Cc3c(C)noc3C)cc2)C1=O (racemic) [Example 21, (±)-2-(3,5-Dimethyl-isoxazol-4-yl)-N-{4-[2-(2,5-dioxo-4-phenyl-4-propyl-imidazolidin-1-yl)-acetyl]-phenyl}-acetamide]
13 | 83 | – | CCCC1(c2ccccc2)NC(=O)N(CC(=O)c2ccc(NC(=O)C3CCOC3)cc2)C1=O (stereo not shown) [Example 22, Tetrahydro-furan-3-carboxylic acid {4-[2-(2,5-dioxo-4-phenyl-4-propyl-imidazolidin-1-yl)-acetyl]-phenyl}-amide]
14 | 98 | – | CCC1(c2ccccc2)NC(=O)N(CC(=O)c2ccc(NC(=O)Nc3c(C)noc3C)cc2)C1=O (racemic) [Example 2, (±)-1-(3,5-Dimethyl-isoxazol-4-yl)-3-{4-[2-(4-ethyl-2,5-dioxo-4-phenyl-imidazolidin-1-yl)-acetyl]-phenyl}-urea]
15 | 96 | – | CCCC1(c2ccccc2)NC(=O)N(CC(=O)c2ccc(NC(=O)C(CC)CC)cc2)C1=O (racemic) [Example 24, (±)-N-{4-[2-(2,5-Dioxo-4-phenyl-4-propyl-imidazolidin-1-yl)-acetyl]-phenyl}-2-ethyl-butyramide]
16 | 56 | – | CCCC1(c2ccccc2)NC(=O)N(CC(=O)c2ccc(NC(=O)Nc3ccccc3F)cc2)C1=O (racemic) [Example 44, (±)-1-{4-[2-(2,5-Dioxo-4-phenyl-4-propyl-imidazolidin-1-yl)-acetyl]-phenyl}-3-(2-fluoro-phenyl)-urea]
17 | 64 | – | Cc1cnn(C)c1CC(=O)Nc1ccc(C(=O)CN2C(=O)NC(c3ccccc3)(c3ccccc3)C2=O)cc1 [Example 49, 2-(2,4-Dimethyl-2H-pyrazol-3-yl)-N-{4-[2-(2,5-dioxo-4,4-diphenyl-imidazolidin-1-yl)-acetyl]-phenyl}-acetamide]
18 | – | 90 | CCCC1(c2ccccc2)NC(=O)N(CC(=O)c2ccc(NC(=O)C(CC)CC)cc2)C1=O (single isomer, unassigned; (+)) [Example 32]
19 | 105 | – | CCCC1(c2ccccc2)NC(=O)N(CC(=O)c2ccc(NC(=O)Nc3c(C)noc3C)cc2F)C1=O (racemic) [Example 1, (±)-1-(3,5-Dimethyl-isoxazol-4-yl)-3-{4-[2-(2,5-dioxo-4-phenyl-4-propyl-imidazolidin-1-yl)-acetyl]-3-fluoro-phenyl}-urea]
20 | – | 99 | CCCC1(c2ccccc2)NC(=O)N(CC(=O)c2ccc(NC(=O)Cc3c(C)noc3C)cc2)C1=O (single isomer, unassigned; (-)) [Example 29]
21 | 36 | – | CCCC1(c2ccccc2)NC(=O)N(CC(=O)c2ccc(NC(=O)C3CCCN3)cc2)C1=O (stereo not shown) [Example 23, Pyrrolidine-2-carboxylic acid {4-[2-(2,5-dioxo-4-phenyl-4-propyl-imidazolidin-1-yl)-acetyl]-phenyl}-amide]
22 | 63 | – | CCCC1(c2ccccc2)NC(=O)N(CC(=O)c2ccc(NC(=O)CC(C)C)cc2F)C1=O (racemic) [Example 5, (±)-N-{4-[2-(2,5-Dioxo-4-phenyl-4-propyl-imidazolidin-1-yl)-acetyl]-3-fluoro-phenyl}-3-methyl-butyramide]

Source: patent US20090099243A1, “ORGANIC COMPOUNDS” (priority 2007, published 2009)
